Source: patent publication US12643887B2, “Heterocyclic derivatives with cardiomyocyte proliferation activity for treatment of heart diseases” (Tongji University, priority 2019, dated 2026)

Key:
Format in all cases: biochemical
human HIPK2 = target: T1, human HIPK2 (Homo sapiens, UniProt Q9H2X6); assay: HIPK2 enzyme assay (ADP-Glo); settings: ADP-Glo, ATP 5 μM; read-out: HIPK2 IC50
T1 construct: Recombinant human HIPK2 (1-640); GST (N); purchased SignalChem H04-11BG; host or cells: Sf9 insect cells
T1 sequence (Q9H2X6 1-640): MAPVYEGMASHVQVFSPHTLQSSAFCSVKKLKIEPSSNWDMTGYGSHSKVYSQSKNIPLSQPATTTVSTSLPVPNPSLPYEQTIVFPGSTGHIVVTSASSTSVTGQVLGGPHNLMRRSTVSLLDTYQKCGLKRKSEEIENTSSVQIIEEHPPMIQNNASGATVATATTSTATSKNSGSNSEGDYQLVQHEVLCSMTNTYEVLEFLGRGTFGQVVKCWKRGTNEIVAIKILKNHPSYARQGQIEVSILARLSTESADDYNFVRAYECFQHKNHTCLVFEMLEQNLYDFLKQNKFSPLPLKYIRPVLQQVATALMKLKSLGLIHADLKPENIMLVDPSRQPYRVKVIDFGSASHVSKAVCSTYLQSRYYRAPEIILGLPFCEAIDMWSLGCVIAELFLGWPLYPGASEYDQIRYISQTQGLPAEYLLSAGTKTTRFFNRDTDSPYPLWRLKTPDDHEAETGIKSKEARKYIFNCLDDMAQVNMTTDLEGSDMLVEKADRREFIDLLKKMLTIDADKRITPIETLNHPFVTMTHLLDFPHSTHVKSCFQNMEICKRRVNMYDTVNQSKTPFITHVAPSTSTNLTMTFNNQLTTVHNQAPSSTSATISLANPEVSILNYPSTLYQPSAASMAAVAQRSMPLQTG
How it was run: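 GST-tagged HIPK2 (1-640) from Sf9, 1 nM, preincubated 30 min at 25° C with inhibitor in 40 mM Tris pH 7.5, 20 mM MgCl2. Reaction ran 90 min at 25° C with GST-MBP substrate at 0.05 mg/ml and 5 μM ATP. ADP-Glo luminescence; IC50 by four-parameter logistic fit.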

human DYRK1A = target: T2, human DYRK1A (Homo sapiens, UniProt Q13627); assay: DYRK1A enzyme assay (ADP-Glo); settings: ADP-Glo, ATP 60 μM; read-out: DYRK1A IC50
T2 construct: Recombinant full-length DYRK1A (expressed in E. Coli cells with an N-terminal GST tag); GST (N); purchased SignalChem D09-10G; host or cells: E. coli
How it was run: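 GST-tagged full-length human DYRK1A (E. coli, 3 nM) preincubated 30 min at 25 °C with compound in 40 mM Tris pH 7.5, 20 mM MgCl2, 0.1 mg/ml BSA, 50 μM DTT, then reacted 60 min with 20 μM DYRKtide and 60 μM ATP. ADP-Glo luminescence; IC50 by four-parameter logistic fit.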

human CLK1 = target: T3, human CLK1 (Homo sapiens, UniProt P49759); assay: CLK1 enzyme assay (ADP-Glo); settings: ADP-Glo, ATP 10 μM; read-out: CLK1 IC50
T3 construct: Recombinant human CLK1 (129-end); GST (N); purchased SignalChem C57-11G; host or cells: Sf9 insect cells
T3 sequence (P49759 129-484 limits assumed): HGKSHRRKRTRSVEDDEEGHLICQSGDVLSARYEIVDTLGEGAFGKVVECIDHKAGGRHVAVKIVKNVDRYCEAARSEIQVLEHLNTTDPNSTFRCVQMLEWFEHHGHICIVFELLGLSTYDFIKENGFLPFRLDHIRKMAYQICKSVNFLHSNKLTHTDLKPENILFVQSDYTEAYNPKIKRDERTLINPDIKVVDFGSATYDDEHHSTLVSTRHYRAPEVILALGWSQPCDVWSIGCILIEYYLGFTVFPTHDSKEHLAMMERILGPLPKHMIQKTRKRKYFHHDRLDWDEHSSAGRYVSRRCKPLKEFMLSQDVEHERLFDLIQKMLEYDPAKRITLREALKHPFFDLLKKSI
How it was run: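 GST-tagged CLK1 (129-end, Sf9-expressed) at 16 nM was preincubated with compound 30 min at 25 °C in 40 mM Tris pH 7.5, 20 mM MgCl2, 0.1 mg/ml BSA, 50 μM DTT. Reaction with 2 μM substrate and 10 μM ATP ran 60 min at 25 °C. ADP-Glo luminescence gave IC50 by four-parameter fit.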

Row | SMILES | IC50 (human HIPK2) [nM] | IC50 (human DYRK1A) [nM] | IC50 (human CLK1) [nM]
1 | Cn1cnc2ccc(/C=C3\N=C(Nc4ccc5ncsc5c4)NC3=O)cc21 [Example 75, (Z)-2-(benzo[d]thiazol-6-ylamino)-5-((1-methyl-1H-benzo[d]imidazol-6-yl)methylene)-3,5-dihydro-4H-imidazol-4-one] | < 100 | < 100 | < 100
2 | O=C1NC(Nc2ccc3ncsc3c2)=N/C1=C\c1ccc2nc[nH]c2c1 [Example 76, (Z)-5-((1H-benzo[d]imidazol-6-yl)methylene)-2-(benzo[d]thiazol-6-ylamino)-3,5-dihydro-4H-imidazol-4-one] | 100 to 1000 | < 100 | < 100
3 | Cn1ncc2cc(/C=C3\N=C(Nc4ccccc4)NC3=O)ccc21 [Example 77, (Z)-5-((1-methyl-1H-indazol-5-yl)methylene)-2-(phenylamino)-3,5-dihydro-4H-imidazol-4-one] | > 10000 | < 100 | 100 to 1000
4 | Cn1ncc2cc(/C=C3\N=C(Nc4ccc5ncsc5c4)NC3=O)ccc21 [Example 78, (Z)-2-(benzo[d]thiazol-6-ylamino)-5-((1-methyl-1H-indazol-5-yl)methylene)-3,5-dihydro-4H-imidazol-4-one] | > 10000 | > 10000 | > 10000
5 | Cn1ncc2ccc(/C=C3\N=C(Nc4ccccc4)NC3=O)cc21 [Example 79, 5-((1-methyl-1H-indazol-6-yl)methylene)-2-(phenylamino)-3,5-dihydro-4H-imidazol-4-one] | > 10000 | > 10000 | > 10000
6 | Cn1ncc2ccc(/C=C3\N=C(Nc4ccc5ncsc5c4)NC3=O)cc21 [Example 80, (Z)-2-(benzo[d]thiazol-6-ylamino)-5-((1-methyl-1H-indazol-6-yl)methylene)-3,5-dihydro-4H-imidazol-4-one] | > 10000 | > 10000 | > 10000
7 | O=C1NC(Nc2ccc3c(c2)OCCO3)=N/C1=C\c1ccc2ncsc2c1 [Example 81, (Z)-5-(benzo[d]thiazol-6-ylmethylene)-2-((2,3-dihydrobenzo[b][1,4]dioxin-6-yl)amino)-3,5-dihydro-4H-imidazol-4-one] | < 100 | < 100 | < 100
8 | CN(C1=N/C(=C\c2ccc3ncsc3c2)C(=O)N1)c1ccc2ncsc2c1 [Example 83, (Z)-2-(benzo[d]thiazol-6-yl(methyl)amino)-5-(benzo[d]thiazol-6-ylmethylene)-3,5-dihydro-4H-imidazol-4-one] | > 10000 | 100 to 1000 | < 100
9 | CN(C1=N/C(=C\c2ccc3c(c2)OCCO3)C(=O)N1)c1ccc2ncsc2c1 [Example 84, (Z)-2-(benzo[d]thiazol-6-yl(methyl)amino)-5-((2,3-dihydrobenzo[b][1,4]dioxin-6-yl)methylene)-3,5-dihydro-4H-imidazol-4-one] | 1000 to 10000 | 100 to 1000 | 100 to 1000
10 | O=C1NC(Nc2ccc3ncsc3c2)=NC1Cc1ccc2ncsc2c1 (stereo not drawn) [Example 102, 2-(benzo[d]thiazol-6-ylamino)-5-(benzo[d]thiazol-6-ylmethyl)-3,5-dihydro-4H-imidazol-4-one] | 100 to 1000 | 1000 to 10000 | 100 to 1000
11 | NC1=N/C(=C\c2ccc3ncsc3c2)C(=O)N1 [Example 103, (Z)-2-amino-5-(benzo[d]thiazol-6-ylmethylene)-3,5-dihydro-4H-imidazol-4-one] | 100 to 1000 | < 100 | < 100
12 | O=C1NC(Nc2ccc3nc(Nc4ccccc4)sc3c2)=N/C1=C\c1ccc2ncsc2c1 [Example 104, (Z)-5-(benzo[d]thiazol-6-ylmethylene)-2-((2-(phenylamino)benzo[d]thiazol-6-yl)amino)-3,5-dihydro-4H-imidazol-4-one] | 1000 to 10000 | 1000 to 10000 | < 100
13 | O=C1NC(N(CC2CC2)c2ccc3ncsc3c2)=N/C1=C\c1ccc2ncsc2c1 [Example 105, (Z)-2-(benzo[d]thiazol-6-yl(cyclopropylmethyl)amino)-5-(benzo[d]thiazol-6-ylmethylene)-3,5-dihydro-4H-imidazol-4-one] | > 10000 | > 10000 | > 10000
